Data published in US5391540A, “Substituted pyridine compounds” (Rohm and Haas Company, priority 1993, dated 1995).

Columns and labels:
Type in all cases: in vivo
[1] = test system: Mogl; test: plant injury after spraying emerged plants (Table D); set-up: scale not given here; conditions: 1.1210 kg/ha
Text: (§1) Topsoil (silt loam) is sieved through a screen having 1.27 cm openings. […] This mixture is steam sterilized and then placed in aluminum pans 6.985 cm deep having ten holes in the bottom each 0.635 cm in diameter. The soil mixture is compacted to a depth of 1.27 cm. from the top of the pan. A predetermined number of seeds of each of several dicotyledonous and monocotyledonous annual plant species and/or vegetative propagules for the perennial plant species are placed on the soil and pressed into the soil surface. The seeds and/or vegetative propagules are covered with 1.27 cm of a mixture of 50% topsoil and 50% of a mixture of Canadian sphagnum peat moss, vermiculite and a wetting agent. The pans are then placed on a capillary mat on a greenhouse bench and subirrigated as needed.
(§2) In the following Table D the legends used to identify the plant species are the same as those used in the preceding Table B.

[2] = test system: Corn; test: as above; set-up: scale not given here
Text: as §1, §2

[3] = test system: Whez; test: as above; set-up: scale not given here
Text: as §1, §2

[4] = test system: Rice; test: as above; set-up: scale not given here
Text: as §1, §2

[5] = test system: Lacg; test: as above; set-up: scale not given here
Text: as §1, §2

[6] = test system: Grso; test: as above; set-up: scale not given here
Text: as §1, §2

[7] = test system: Sobe; test: as above; set-up: scale not given here
Text: as §1, §2

[8] = test system: Bygr; test: as above; set-up: scale not given here
Text: as §1, §2

[9] = test system: Prmi; test: as above; set-up: scale not given here
Text: as §1, §2

[10] = test system: Grft; test: as above; set-up: scale not given here
Text: as §1, §2

[11] = test system: Cobu; test: as above; set-up: scale not given here
Text: as §1, §2

[12] = test system: Dobr; test: as above
Text: Topsoil (silt loam) is sieved through a screen having 1.27 cm openings. In some of the tests the soil was mixed with fertilizer (1225 g/cu. m of 12/5/9 containing isobutylidene diurea), while in other tests the fertilizer was omitted. This mixture is steam sterilized and then placed in aluminum pans 6.985 cm deep having ten holes in the bottom each 0.635 cm in diameter. The soil mixture is compacted to a depth of 1.27 cm. from the top of the pan. A predetermined number of seeds of each of several dicotyledonous and monocotyledonous annual plant species and/or vegetative propagules for the perennial plant species are placed on the soil and pressed into the soil surface. The seeds and/or vegetative propagules are covered with 1.27 cm of a mixture of 50% topsoil and 50% of a mixture of Canadian sphagnum peat moss, vermiculite and a wetting agent. The pans are then placed on a capillary mat on a greenhouse bench and subirrigated as needed. After the plants reach the desired stage (9 to 14 days, 1 to 3 true leaf stage), each pan (except the control pans) is removed to a spraying chamber and sprayed by means of an atomizer, operating at a spray pressure of 170.3 kPa ([…]) at the application rates noted in Table D. In the spray solution is an amount of an emulsifying agent mixture (35% butylamine salt of dodecylbenzenesulfonic acid and 65% tall oil condensed with ethylene oxide in the ratio of 11 mols of ethylene oxide/mol of tall oil) to give a spray solution or suspension. The spray solution or suspension contains a sufficient amount of the candidate chemical in order to give application rates of the active ingredient corresponding to those shown in Table D below while applying a total amount of solution or suspension equivalent to 1870 L/Ha (200 gallons/acre). The pans are returned to the greenhouse and watered as before and the injury to the plants as compared to the control pans is observed at approximately 10-14 days (usually 11 days).
as §2

[13] = test system: Downy Brome; test: Pre-emergent herbicidal activity (Table A); conditions: Bromus tectorum, pre-emergence, Dobr, 11.2 kg/ha, 10-14 days, read-out: herbicidal rating (% inhibition)
Summary of the method: (§3)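 Seeds or vegetative propagules were set on topsoil compacted to 0.95 to 1.27 cm below the pan rim, then covered with soil thoroughly mixed with a known amount of test compound in acetone or water carrier. Ratings follow a scale of percent inhibition per species.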

[14] = test system: Barnyardgrass; test: Pre-emergent herbicidal activity (Table A); conditions: Echinochloa crus-galli, pre-emergence, Bygr, 11.2 kg/ha, 10-14 days, read-out: herbicidal rating (% inhibition)
Summary of the method: as §3

[15] = test system: Cocklebur; test: Pre-emergent herbicidal activity (Table A); conditions: Xanthium strumarium, pre-emergence, Cobu, 11.2 kg/ha, 10-14 days, read-out: herbicidal rating (% inhibition)
Summary of the method: as §3

[16] = test system: Morningglory; test: Pre-emergent herbicidal activity (Table A); conditions: Ipomoea, pre-emergence, Mogl, 11.2 kg/ha, 10-14 days, read-out: herbicidal rating (% inhibition)
Summary of the method: as §3

## COC(=O)c1c(O)nc(C(F)(F)F)c(C(=O)OC)c1CC(C)C [Compound 1, 3,5-pyridinedicarboxylic acid, 2-hydroxy-4-(2-methylpropyl)-6-(trifluoromethyl)-, dimethyl ester]
[1]
  plant injury rating, Mogl: 1
[2]; 0.0701 kg/ha
  plant injury rating, Corn: 0
[2]; 0.2803 kg/ha
  plant injury rating, Corn: 0
[2]; 1.1210 kg/ha
  plant injury rating, Corn: 2
[2]; 5.3808 kg/ha
  plant injury rating, Corn: 2
[3]; 0.0701 kg/ha
  plant injury rating, Whez: 0
[3]; 0.2803 kg/ha
  plant injury rating, Whez: 0
[3]; 1.1210 kg/ha
  plant injury rating, Whez: 0
[3]; 5.3808 kg/ha
  plant injury rating, Whez: 0
[4]; 0.0701 kg/ha
  plant injury rating, Rice: 0
[4]; 0.2803 kg/ha
  plant injury rating, Rice: 0
[4]; 1.1210 kg/ha
  plant injury rating, Rice: 0
[5]; 0.0701 kg/ha
  plant injury rating, Lacg: 3
[5]; 1.1210 kg/ha
  plant injury rating, Lacg: 3
[5]; 5.3808 kg/ha
  plant injury rating, Lacg: 3
[6]; 0.0701 kg/ha
  plant injury rating, Grso: 0
[6]; 0.2803 kg/ha
  plant injury rating, Grso: 0
[6]; 1.1210 kg/ha
  plant injury rating, Grso: 0
[7]; 0.2803 kg/ha
  plant injury rating, Sobe: 2
[7]; 1.1210 kg/ha
  plant injury rating, Sobe: 1
[7]; 5.3808 kg/ha
  plant injury rating, Sobe: 3
[8]; 0.0701 kg/ha
  plant injury rating, Bygr: 0
[8]; 1.1210 kg/ha
  plant injury rating, Bygr: 1
[9]; 0.0701 kg/ha
  plant injury rating, Prmi: 0
[9]; 0.2803 kg/ha
  plant injury rating, Prmi: 0
[9]; 1.1210 kg/ha
  plant injury rating, Prmi: 2
[9]; 5.3808 kg/ha
  plant injury rating, Prmi: 3
[10]; 0.0701 kg/ha
  plant injury rating, Grft: 0
[10]; 0.2803 kg/ha
  plant injury rating, Grft: 0
[11]; 0.0701 kg/ha
  plant injury rating, Cobu: 0
[11]; 0.2803 kg/ha
  plant injury rating, Cobu: 0
[11]; 1.1210 kg/ha
  plant injury rating, Cobu: 0
[11]; 5.3808 kg/ha
  plant injury rating, Cobu: 4
[12]; 0.0701 kg/ha
  plant injury rating, Dobr: 0
[12]; 0.2803 kg/ha
  plant injury rating, Dobr: 0
[12]; 1.1210 kg/ha
  plant injury rating, Dobr: 0
[12]; 5.3808 kg/ha
  plant injury rating, Dobr: 0
[13]
  inhibition at 11200 g/ha: 0 to 24%
[14]
  inhibition at 11200 g/ha: 0 to 24%
[15]
  inhibition at 11200 g/ha: 0 to 24%
[16]
  inhibition at 11200 g/ha: 0 to 24%
